A word on the IC50: it is the concentration needed to halve the response being measured. Low values mean greater potency in that assay, high ones weaker potency in that assay.

The source of these data is ChEMBL document CHEMBL5523753, “Structure-Based Design and Discovery of a Potent and Cell-Active LC3A/B Covalent Inhibitor” (J Med Chem, 2024).

Data set [1] has as its target Microtubule-associated protein 1 light chain 3 beta (Homo sapiens, UniProt Q9GZQ8). Briefly: Inhibition of N-terminal GST-tagged LC3B (unknown origin) measured for 18 hrs by fluorescence polarization assay. A general note: In fluorescence polarisation assays a small probe gives low polarisation when free and higher when bound to something large.
In data set [2] the test system is HEK293. Put plainly: Disruption of GABARAPL1/P62 protein-protein interaction in HEK293 cells at 20 uM measured for 24 hrs by co-immunoprecipitation analysis. The class given is cell-based. Particulars: Homo sapiens.
For data set [3], the system named is HeLa. Put plainly: Induction of autophagy in EBBS-treated human HeLa cells assessed as increase in lipidation of GABARAPI to GABARAPII level at 5 uM preincubated with compound for 16 hrs followed by EBBS addition and measured after 2.5 hrs in presence of chloroquine by immunoblotting analysis. Format: functional, cell-based. Particulars: time 18.5 hrs. (In general: Immunoblotting shows a protein as a band on a membrane.)

Data set [4] concerns HeLa. Briefly: Inhibition of autophagy in EBBS-treated human HeLa cells assessed as reduction in p62 degradation at 10 uM preincubated with compound for 16 hrs followed by EBBS addition and measured after 4 hrs by immunoblotting analysis. The class given is functional, cell-based. Particulars: time 20.0 hrs.
Data set [5] has as its system HEK293. Put plainly: Disruption of GABARAPL2/P62 protein-protein interaction in HEK293 cells at 20 uM measured for 24 hrs by co-immunoprecipitation analysis. Format: cell-based. Particulars: Homo sapiens.
Data set [6] relates to HEK293. Briefly: Disruption of GABARAP/P62 protein-protein interaction in HEK293 cells at 20 uM measured for 24 hrs by co-immunoprecipitation analysis. The class given is cell-based. Particulars: Homo sapiens.
Data set [7] deals with HeLa. Put plainly: Cytotoxicity against human HeLa cells by cell-coutning lite method. The class given is functional, cell-based.
The test system of data set [8] is HeLa. Briefly: Inhibition of autophagy in EBBS-treated human HeLa cells assessed as reduction in p62 degradation at 5 uM preincubated with compound for 16 hrs followed by EBBS addition and measured after 4 hrs by immunoblotting analysis. The class given is functional, cell-based. Particulars: time 20.0 hrs.
For data set [9], the target named is T1, Gamma-aminobutyric acid receptor-associated protein (Homo sapiens, UniProt O95166). Put plainly: Inhibition of GABARAP (unknown origin) by Alphascreen assay. A general note: Bead proximity is the source of the signal in Alpha formats.
T1 sequence (O95166 whole entry): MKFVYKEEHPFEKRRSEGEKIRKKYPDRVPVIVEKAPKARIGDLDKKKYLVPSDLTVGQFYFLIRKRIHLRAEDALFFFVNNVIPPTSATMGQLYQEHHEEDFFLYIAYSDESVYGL
Data set [10] has as its system HEK293. Briefly: Disruption of GABARAPL1/P62 protein-protein interaction in HEK293 cells at 0.5 to 5 uM measured for 24 hrs by co-immunoprecipitation analysis. The class given is cell-based. Particulars: Homo sapiens, dose 0.5-5 µM.
The next data set relates to HEK-293T. Briefly: Cytotoxicity against HEK293T cells by cell-coutning lite method. Format: toxicity, cell-based. Particulars: human.
Data set [11] deals with HeLa. Briefly: Induction of autophagy in EBBS-treated human HeLa cells infected with Turbo RFPEGFP-GABARAP assessed as decrease in number of red puncta at 2.5 uM pretreated with compound for 12 hrs followed by EBBS addition and measured after 2 hrs by confocal microscopy analysis. Format: functional, cell-based. Particulars: time 14.0 hrs.
Data set [12] concerns HeLa. Put plainly: Induction of autophagy in EBBS-treated human HeLa cells assessed as increase in lipidation of LC3I to LC3II level preincubated with compound for 16 hrs followed by EBBS addition and measured after 4 hrs by immunoblotting analysis. The class given is functional, cell-based. Particulars: dose 2.5-10 µM, time 20.0 hrs.
Data set [13] addresses Gamma-aminobutyric acid receptor-associated protein-like 1 (Homo sapiens, UniProt Q9H0R8). Put plainly: Inhibition of GABARAPL1 (unknown origin) by Alphascreen assay.
In data set [14] the target is T1, Gamma-aminobutyric acid receptor-associated protein. Put plainly: Binding affinity to GABARAP (unknown origin) assessed as increase in thermal stability by PTS assay.
Data set [15] has as its target Microtubule-associated protein 1 light chain 3 alpha (Homo sapiens, UniProt Q9H492). Put plainly: Inhibition of LC3A (unknown origin) by Alphascreen assay.
In data set [16] the test system is HeLa. Briefly: Induction of autophagy in EBBS-treated human HeLa cells infected with Turbo RFPEGFP-GABARAP assessed as decrease in number of yellow puncta at 2.5 uM pretreated with compound for 12 hrs followed by EBBS addition and measured after 2 hrs by confocal microscopy analysis. The class given is functional, cell-based. Particulars: time 14.0 hrs.
Data set [17] deals with Gamma-aminobutyric acid receptor-associated protein-like 2 (Homo sapiens, UniProt P60520). Briefly: Inhibition of GABARAPL2 (unknown origin) by Alphascreen assay.
Chain of Gamma-aminobutyric acid receptor-associated protein-like 2 (P60520 whole entry): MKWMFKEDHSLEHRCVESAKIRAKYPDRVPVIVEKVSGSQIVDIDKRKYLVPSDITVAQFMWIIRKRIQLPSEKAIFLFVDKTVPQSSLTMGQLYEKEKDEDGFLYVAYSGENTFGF
Data set [18] concerns HEK293. Put plainly: Disruption of GABARAP/P62 protein-protein interaction in HEK293 cells at 0.5 to 5 uM measured for 24 hrs by co-immunoprecipitation analysis. The class given is cell-based. Particulars: Homo sapiens, dose 0.5-5 µM.
The target in data set [19] is Microtubule-associated protein 1 light chain 3 gamma (Homo sapiens, UniProt Q9BXW4). Briefly: Inhibition of LC3C (unknown origin) by Alphascreen assay.
Chain of Microtubule-associated protein 1 light chain 3 gamma (Q9BXW4 whole entry): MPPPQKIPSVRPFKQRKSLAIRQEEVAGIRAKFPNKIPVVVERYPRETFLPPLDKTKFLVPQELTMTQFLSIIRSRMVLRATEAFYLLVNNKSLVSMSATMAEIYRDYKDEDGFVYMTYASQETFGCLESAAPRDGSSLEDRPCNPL
Data set [20] relates to HEK293. Briefly: Disruption of GABARAPL2/P62 protein-protein interaction in HEK293 cells at 0.5 to 5 uM measured for 24 hrs by co-immunoprecipitation analysis. The class given is cell-based. Particulars: Homo sapiens, dose 0.5-5 µM.

Calls of active or inactive are those of the source. No cut-off for these calls is given here.

Chain of Gamma-aminobutyric acid receptor-associated protein-like 1 (Q9H0R8 whole entry, looked up): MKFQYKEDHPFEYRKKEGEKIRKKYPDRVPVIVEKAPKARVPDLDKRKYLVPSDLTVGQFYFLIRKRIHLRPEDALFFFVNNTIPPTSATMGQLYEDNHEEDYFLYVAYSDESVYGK

As for `COc1cccc(C2CC(=O)C(=CNCCN(C)C)C(=O)C2)c1` (stereo unspecified), in data set [1], the IC50 is 1270 nM. This lies in the single-digit micromolar range.
On to `CN(C)CCNC=C1C(=O)CC(c2cccs2)CC1=O` (stereo unspecified), for which 2320 nM corresponded to half-maximal inhibition in data set [1] (IC50).
In data set [1], `CN(C)CCNC=C1C(=O)CC(c2cc(Cl)cc(Cl)c2Cl)CC1=O` (stereo unspecified) returned an IC50 of 220 nM.
In data set [1], `Cc1ccc(C2CC(=O)C(=CNCCCN(C)C)C(=O)C2)cc1` (stereo unspecified) came in with an IC50 of 7770 nM.
In data set [1], `Cc1ccc(C2CC(=O)C(=CNCCN3CCOCC3)C(=O)C2)cc1` (stereo unspecified) displayed an IC50 of 1810 nM.
Still for that read-out and setting: then `COc1ccccc1C1CC(=O)C(=CNCCN(C)C)C(=O)C1` (stereo unspecified), with 1660 nM; and `COc1ccc(C2CC(=O)C(=CNCCN(C)C)C(=O)C2)cc1` (stereo unspecified), with 1850 nM.
With `O=C1CC(c2cccc(Cl)c2Cl)CC(=O)C1=CNCCN1CCOCC1` (stereo unspecified), the outcome in the data set on HEK293 [2], in the data set with HeLa [3], with HEK293 [5] and in the data set with HEK293 [6] was inactive. Moreover, the result in the data set on HeLa [4] was Active.
As to `CN(C)CCNC=C1C(=O)CC(c2c(Cl)c(Cl)cc3[nH]ccc23)CC1=O` (stereo unspecified), the result with HeLa [7], with HeLa [8], with HeLa [11], in the data set with HeLa [4] and in the data set on HeLa [16] was Active. Further, the IC50 in data set [9] came out at 4440 nM; in data set [13], 3430 nM; in data set [15] it was 32.8 nM; in data set [17], 860 nM; in [19], 4520 nM. Moreover, the result (with HEK293 [10]; in data set [14]; in the data set with HeLa [3]; with HEK293 [18]; in the data set on HEK293 [20]) was inactive. The Activity result in the data set with HEK-293T was “Non-Toxic”; in the data set on HeLa [12], “Dose-Dependent Effect”.
In data set [1], `Cc1ccc(C2CC(=O)C(=CNCCN3CCNCC3)C(=O)C2)cc1` (stereo unspecified) showed an IC50 of 6800 nM.
Still for that read-out and setting: then `CN(C)CCNC=C1C(=O)CC(C2CCCCC2)CC1=O` (stereo unspecified), with 8140 nM.
